Source: US11771685B2, “Compounds for the treatment of neurological or mitochondrial diseases” (MUSC FOUNDATION FOR RESEARCH DEVELOPMENT, priority 2018, dated 2023)
Read-outs that look alike come from different tables or passages of the source.

Key:
HT22 cells = assay: HT22 oxytosis (glutamate-induced cell death) neuroprotection assay; type: cell-based, mouse; details: 10 mM Glu
Description: The HT22 murine hippocampal cell system was chosen as an initial phenotypic screen for neuroprotective efficacy (Andreux et al., 2013; Andreux et al., 2014; Ohlow et al., 2017; Schubert and Maher, 2012). HT22 cells exposed to high extracellular Glu ([…]) undergo oxytosis, a non-apoptotic programmed cell death involving glutathione (GSH) depletion followed by ROS accumulation, oxidative damage, and a cytotoxic signaling cascade (Tan et al., 2001). Glu blocks the −xC cystine antiporter, causing (Tan et al., 2001) cells to accumulate severe oxidative stress, mitochondrial depolarization, disrupted mitochondrial morphology, and Ca^2+ influx (Tan et al., 2001; Yang et al., 2011; Cheng et al., 2013—cellular events that may occur in neurological diseases, including epilepsy. Thus, the immortalized HT22 cell line is a well-established model of neuronal oxidative stress (Sagara and Schubert, 1998; Matsumoto et al., 1996; Albrecht et al., 2010; Ha and Park, 2006; van Leyen et al., 2005; Tobaben et al., 2011), and a verified model of neurodegeneration to screen for potential neuroprotective drugs (Albrecht et al., 2010; van Leyen et al., 2008; Lewerenz et al., 2009; Lewerenz et al., 2003).
Consistent with that work, most of the 2-amino compounds achieved protection of HT22 cells against glutamate-induced oxytosis in the nM to μM range. […] Neuroprotection based on relative cell viability compared to +Glu and −Glu control cells was measured.
The HT22 neuronal cell line is a subclone of HT4, derived from the mouse hippocampus (Morimoto and Koshland, 1990). […] The HT22 cells used in this study were kindly provided by Dr. David Schubert (The Salk Institute for Biological Studies, La Jolla, CA, USA). The cells were grown in Dulbecco's Modified Eagle's Medium (DMEM/high glucose) supplemented with 10% fetal bovine serum (Hyclone) and 5 mL of antibiotic-antimycotic (Amphotericin B, Penicillin, and Streptomycin; Invitrogen) at 37° C. in 5% CO2.
HT-22 cells were seeded onto 96-well plates at 2.5×10^3 cells per well in 75 μL of medium and maintained at 37° C. in 5% CO2 overnight prior to the initiation of experimental treatments. For glutamate toxicity testing, cells were subsequently treated with 25 μL of medium containing glutamate (monosodium glutamate, Sigma, 1 M stock concentration in media, to achieve a final concentration of 10 mM) plus compound (stock in DMSO) and maintained at 37° C. in 5% CO2 for 24 hr. CellTiter-Blue® (resazurin cell viability assay reagent) was then added to each well at a final concentration of 0.125 mg/mL. The mixture was allowed to incubate for 2-4 hr until sufficient color change occurred. Cell viability was measured as a function of resorufin fluorescence intensity using a Tecan M200 Pro spectrophotometer, 560 nm/590 nm (excitation/emission). Cell viability was calculated as a percentage compared with untreated controls. EC50s were determined using GraphPad Prism's “log(inhibitor) vs. normalized response-Variable slope” function. Morphology of HT22 cells following treatments was determined by phase-contrast microscopy.
(§1) Statistical analyses were performed with GraphPad Prism 6 software. For the in vitro HT22 oxytosis assay, dose-response data were fit using GraphPad Prism's log(inhibitor) vs normalized response-variable slope parameters to determine EC50 values and 95% confidence intervals. For the zebrafish locomotive anti-seizure activity data, multiple comparisons were made using a one-way analysis of variance (ANOVA) with a Kruskal-Wallis Test, followed by the Dunn's Method to determine significant differences between all pairs or between control and experimental groups using the Dunn Method for Joint Ranking. Differences were considered statistically significant when p<0.05. Data from zebrafish experiments are represented as scatter dot plots of individual measurements, with means±standard deviation indicated by bars.

[1] = test system: PTZ-induced seizure activity in zebrafish larvae; assay: Zebrafish PTZ-induced seizure model; type: in vivo; details: for minimal effective concentration / anti-seizure activity: 7 dpf larvae; for minimal effective concentration: 1 hr pre-treatment, 10 mM PTZ, read-out: Anti-seizure activity: lowest tested dose with significant difference vs PTZ-only group; for inhibition in vivo at 5 µM / inhibition in vivo at 10 µM: read-out: reduction of PTZ-induced locomotor activity; for anti-seizure activity: PTZ
Description: The zebrafish PTZ-induced seizure model was used to determine the most promising compounds' in vivo efficacy. Zebrafish larvae (7 dpf) were treated with the compound for 1 hr prior to inducing seizures with PTZ. As established by previous larval zebrafish anti-seizure studies (Rahn et al., 2014; Hansen et al., 2004; Baraban et al., 2005), total distance traveled by each fish after seizure induction was measured and used as a proxy for seizure activity. Following collection of locomotor data, observation of a startle response and visual inspection for abnormal morphology confirmed that alterations in swim activity were not caused by compound toxicity.
We induced seizures in 7 dpf zebrafish larvae by the addition of […] PTZ as originally developed by Baraban et al., 2005. In a 48-well plate, one 7-dpf zebrafish was added per well. Larvae were dosed with each compound at a sub-lethal dose 1 hr prior to PTZ treatment. Two control rows were included with each experiment—tank water only control and PTZ only. Seizures were induced by adding PTZ to wells to yield a final concentration of 10 mM. After 5 min, the plate was transferred to the Daniovision instrument (Noldus Information Technology) and the chamber light was turned on. After 2 min, MediaRecorder (Noldus) was used to record video for 15 min. A small number of videos were acquired at 25 frames per second, but the majority of data were acquired at 60 frames per second. […] Ethovision XT software (Noldus) was used to track the fish movement from the video images in order to calculate the total distance traveled over 15 min. All experimental comparisons were made between animals from the same clutch.
as §1

Zebrafish larvae = assay: In vivo toxicology in zebrafish larvae; details: 7 dpf larvae, 5-20 μM, observed 1, 5 and 24 hr
Description: Zebrafish larvae, 7 days post-fertilization (dpf), were exposed to compounds at 20, 15, 10, and 5 μM, six larvae per compound. Animals were observed 1, 5, and 24 hr after dosing for overt toxicity (altered survival, morbidity, morphological deformity). Heart rate, behavior, and startle response were monitored at each time point.
Zebrafish (AB strain) were obtained from the Zebrafish International Resource Center (supported by P40 RR012546 from NIH—NCRR). Zebrafish were maintained and crossed according to standard methods (Westerfield, 2000). Fertilized eggs were collected and placed in E3 embryo medium and positioned in an incubator set at 28.5° C. with a 14/10-hr light/dark cycle (Kimmel et al., 1995). To determine the lethal dose of each compound, 96-well plates containing one zebrafish (7 days post-fertilization, dpf) per well in 100 μL of tank water were used. 100 μL of each compound (0.5-15 μM) was added to each well for 12 animals (one row) for a final volume of 200 μL. One row of larvae was used as dimethyl sulfoxide (DMSO)-only controls. […] All zebrafish studies were approved by the Medical University of South Carolina Institutional Animal Care and Use Committee (#180278) and performed in accordance with the guidelines.
Using a 96-well plate, 7 dpf zebrafish were placed one per well with 100 μL of tank water. 100 μL of each compound was then added to each well for 12 animals (one row) for a final volume of 200 μL. One row of zebrafish larvae was used as DMSO only controls.

[2] = Mus musculus, HT-22, 24 h, HT22 cells, 24 hr, 95% CI in parentheses
[3] = Mus musculus, HT-22, HT22 cells
[4] = HT22 cells, 24 hr, 95% CI in parentheses

SMILES | EC50 (HT22 cells; [2]) [µM] | minimal effective concentration ([1]; Danio rerio) [µM] | also measured
O=C1C=C(OCc2ccccc2)C(=O)c2ccccc21 [Compound 27, 2-(Benzyloxy)naphthalene-1,4-dione] | 0.168 | – | –
COc1cccc(C#CCNC2=CC(=O)c3ccccc3C2=O)c1 [Compound 10, 2-((3-(3-Methoxyphenyl)prop-2-yn-1-yl)amino)naphthalene-1,4-dione] | 0.215 | > 20 | –
C#CCC(NC1=CC(=O)c2ccccc2C1=O)c1ccccc1 (racemic) [Compound 21, Rac-2-((1-phenylbut-3-yn-1-yl)amino)naphthalene-1,4-dione] | 6.15 | 5 | –
CCC#CCCNC1=CC(=O)c2ccccc2C1=O [Compound 16, 2-(Hex-3-yn-1-ylamino)naphthalene-1,4-dione] | 5.6 | – | EC50 (HT22 cells; [3]): > 2 µM; overt toxicity observation (Zebrafish larvae): acutely lethal to most fish at the lowest concentration after 1 hr
CC#CCC(CO)NC1=CC(=O)c2ccccc2C1=O (racemic) [Compound 18, Rac-2-((1-hydroxyhex-4-yn-2-yl)amino)naphthalene-1,4-dione] | 2.17 | > 10 | EC50 (HT22 cells; [3]): > 2 µM
O=C1C=C(NCC#Cc2cccnc2)C(=O)c2ccccc21 [Compound 11, 2-((3-(Pyridin-3-yl)prop-2-yn-1-yl)amino)naphthalene-1,4-dione] | 0.29 | – | –
CCC#CCOC1=CC(=O)c2ccccc2C1=O [Compound 29, 2-(Pent-2-yn-1-yloxy)naphthalene-1,4-dione] | ~0.3 | ≤ 5 | EC50 (HT22 cells; [4]): 0.307 µM; inhibition in vivo at 5 µM ([1]; Danio rerio): 60%; inhibition in vivo at 10 µM ([1]; Danio rerio): 53%
C=CCC#CCNC1=CC(=O)c2ccccc2C1=O [Compound 6, 2-(Hex-5-en-2-yn-1-ylamino)naphthalene-1,4-dione] | 2.64 | 10 | inhibition in vivo at 5 µM ([1]; Danio rerio): ~65%; inhibition in vivo at 10 µM ([1]; Danio rerio): 85%
CC(C)=CCC/C(C)=C/CNC1=CC(=O)c2ccccc2C1=O [Compound 22, (E)-2-((3,7-Dimethylocta-2,6-dien-1-yl)amino)naphthalene-1,4-dione] | 9.22 | 20 | EC50 (HT22 cells; HT22 cells): ~9 µM; EC50 (HT22 cells; [3]): ~9.2 µM; anti-seizure activity [1]: activity at 20 and 40 μM that resulted from sedation
CCCC#CCOC1=CC(=O)c2ccccc2C1=O [Compound 30, 2-(Hex-2-yn-1-yloxy)naphthalene-1,4-dione] | 0.249 | 5 | inhibition in vivo at 5 µM ([1]; Danio rerio): 53%; inhibition in vivo at 10 µM ([1]; Danio rerio): 68%
O=C1C=C(NCC#Cc2ccc(C(F)(F)F)cc2)C(=O)c2ccccc21 [Compound 12, 2-((3-(4-(Trifluoromethyl)phenyl)prop-2-yn-1-yl)amino)naphthalene-1,4-dione] | ~0.5 | > 10 | EC50 (HT22 cells; [4]): 0.566 µM; minimal effective concentration [1]: >10 µM
O=C1C=C(NCC#Cc2cccc(F)c2)C(=O)c2ccccc21 [Compound 9, 2-((3-(3-Fluorophenyl)prop-2-yn-1-yl)amino)naphthalene-1,4-dione] | 0.216 | – | –
C#CCC(C)NC1=CC(=O)c2ccccc2C1=O (racemic) [Compound 20, Rac-2-(pent-4-yn-2-ylamino)naphthalene-1,4-dione] | 3.69 | > 10 | EC50 (HT22 cells; [3]): > 2 µM
CC#CCOC1=CC(=O)c2ccccc2C1=O [Compound 28, 2-(But-2-yn-1-yloxy)naphthalene-1,4-dione] | 0.168 | – | –
O=C1C=C(NCC#Cc2cccc(C(F)(F)F)c2)C(=O)c2ccccc21 [Compound 13, 2-((3-(3-(Trifluoromethyl)phenyl)prop-2-yn-1-yl)amino)naphthalene-1,4-dione] | ~0.5 | > 10 | EC50 (HT22 cells; [4]): 0.584 µM; minimal effective concentration [1]: >10 µM
CC(C)=CCC/C(C)=C/CNC1=C(Br)C(=O)c2ccccc2C1=O [Compound 23, (E)-2-Bromo-3-((3,7-dimethylocta-2,6-dien-1-yl)amino)naphthalene-1,4-dione] | 0.133 | > 10 | anti-seizure activity [1]: ineffective
CCCCOC1=CC(=O)c2ccccc2C1=O [Compound 26, 2-Butoxynaphthalene-1,4-dione] | – | – | EC50 (HT22 cells; Mus musculus, HT-22, HT22 cells, 24 hr, 95% CI in parentheses): 0.078 µM
CCCCC#CCOC1=CC(=O)c2ccccc2C1=O [Compound 31, 2-(Hept-2-yn-1-yloxy)naphthalene-1,4-dione] | 0.0761 | 10 | anti-seizure activity [1]: reduced swim distance to control levels; inhibition in vivo at 5 µM ([1]; Danio rerio): 48%; toxic effects during PTZ-induced seizure experiments ([1]; lack of survival or behavioral impairments): higher-than-normal occurrences of toxic effects
CC(C)=CCC/C(C)=C/CNC1=C(C)C(=O)c2ccccc2C1=O [Compound 24, (E)-2-((3,7-Dimethylocta-2,6-dien-1-yl)amino)-3-methylnaphthalene-1,4-dione] | 2.74 | > 10 | EC50 (HT22 cells; [3]): ~2.7 µM; anti-seizure activity [1]: ineffective
